Reference: US8618286B2, “Benzoxazines, benzothiazines, and related compounds having NOS inhibitory activity” (NeurAxon, Inc., priority 2008, dated 2013)
Structures can show the parent of a compound that is named as a salt.

Assays:
Assay type in all cases: biochemical
[1] = target: Nitric oxide synthase (neuronal, human recombinant) nNOS (Homo sapiens (Human), UniProt P29475); experiment: Human nNOS enzyme assay ([3H]-L-arginine to L-citrulline conversion); conditions: for Selectivity eNOS/nNOS: ratio of human eNOS IC50 to human nNOS IC50; for IC50: recombinant human nNOS
Description: (§1) nNOS (Human), eNOS (Human) and iNOS (Human) Enzyme Assay
(§2) Primary stock solutions of test compounds at a concentration of 6 mM were prepared from the 2 to 5 mg powder. The primary stock solutions of each test compound were prepared freshly in distilled water on the day of study to obtain a final concentration of 6 mM. For determination of IC50 values, 12 test compound concentrations were prepared as 3-fold serial dilutions. Concentration range of test compound utilized for nNOS were 0.001 to 300 μM and for eNOS were 0.003 to 1000 μM. The vehicle of the test compound or inhibitor was used as blank control. For non-specific activity, 100 μM L-NMMA was used. Runs using the IC50 concentration of L-NAME were done in parallel as controls.
(§3) All incubations are performed in duplicate
(§4) The reaction mixture was prepared on ice by adding the following components with a micropipette to a polypropylene microcentrifuge tube: • 10 μL of test compound, inhibitor or control (vehicle or L-NMMA) solution; • 25 μL of Reaction Buffer {25 mM Tris-HCl, 0.6 μM BH4, 0.2 μM FMN, 0.2 μM FAD}; • 5 μL of 10 mM NADPH solution {1 mM} (freshly prepared in 10 mM Tris-HCl (pH 7.4); • 5 μL of 6 mM CaCl2 {600 W}; • 5 μL of 1 mM Calmodulin {100 W}; and • 5 μL of 0.02 μg/μL nNOS or 0.12 μg/μL eNOS.
(§5) The above reaction mixture was pre-incubated at room temperature for 15 mins.
(§6) The reaction was started by the addition of the substrate (in 5 μL containing 1 μCi of [^3H]-L-Arginine+2.5 μM of unlabeled L-Arginine) to the reaction mixture. Total reaction volume is 60 μL.
(§7) The reaction was mixed using a vortex mixer and incubate the above reaction mixture at 37° C. in an incubator for 30 minutes.
(§8) To stop the reaction, 400 μL of ice-cold Stop Buffer was added at the end of the incubation period.
(§9) The reaction was then mixed using a vortex mixer, and the reaction samples were transferred to spin cups, which were centrifuged using a microcentrifuge, at 13,000 rpm for 30 sec. at room temperature.
(§10) The spin cups were removed from the holder, 450 μL of eluate (containing the unbound L-citrulline) were transferred to scintillation vials. 3 mL of scintillation fluid were added and the radioactivity was quantified in a liquid scintillation counter.
(§11) Data was analyzed using a Sigmoidal dose-response (variable slope) curve to determine the IC50 value of the test compound. Y=Bottom+(Top−Bottom)/(1+10^((Log IC50−X)*Hill Slope))

[2] = target: Nitric oxide synthase (endothelial, human recombinant) eNOS (Homo sapiens (Human), UniProt P29474); experiment: Human eNOS enzyme assay ([3H]-L-arginine to L-citrulline conversion)
Description: as §1, §2, §3, §4, §5, §6, §7, §8, §9, §10, §11

[3] = target: Recombinant human inducible NOS (iNOS) (Homo sapiens (Human), UniProt P35228); experiment: Human iNOS enzyme assay (Protocol 1 or Protocol 2, radiometric)
Description: The human iNOS assay was carried by either one of the two protocols as described herein:
Recombinant human inducible NOS (iNOS) was produced in Baculovirus-infected Sf9 cells (ALEXIS). In a radiometric method, NO synthase activity was determined by measuring the conversion of [^3H]L-arginine to [^3H]L-citrulline. To measure iNOS, 10 μL of enzyme was added to 100 μL of 100 mM HEPES, pH=7.4, containing 1 mM CaCl2, 1 mM EDTA, 1 mM dithiothreitol, 1 μM FMN, 1 μM FAD, 10 μM tetrahydrobiopterin, 120 μM NADPH, and 100 nM CaM.
To measure enzyme inhibition, a 15 μL solution of a test substance was added to the enzyme assay solution, followed by a pre-incubation time of 15 min at RT. The reaction was initiated by addition of 20 μL L-arginine containing 0.25 μCi of [^3H] arginine/mL and 24 μM L-arginine. The total volume of the reaction mixture was 150 μL in every well. The reactions were carried out at 37° C. for 45 minutes, The reaction was stopped by adding 20 μL of ice-cold buffer containing 100 mM HEPES, 3 mM EGTA, 3 mM EDTA, pH=5.5. [^3H]L-citrulline was separated by DOWEX (ion-exchange resin DOWEX 50 W×8-400, SIGMA) and the DOWEX was removed by spinning at 12,000 g for 10 min in the centrifuge. An aliquot (70 μL) of the supernatant was added to 100 μL of scintillation fluid, and the samples were counted in a liquid scintillation counter (1450 Microbeta Jet, Wallac). Specific NOS activity was reported as the difference between the activity recovered from the test solution and that observed in a control sample containing 240 mM of the inhibitor L-NMMA. All assays were performed at least in duplicate. Standard deviations are 10% or less.
Primary stock solutions of each test compound were prepared in distilled water on the day of study to obtain a final concentration of 6 mM. For the determination of IC50 values, 11 test compound concentrations were prepared as 3-fold serial dilutions. Test compounds were tested in the iNOS assay at a concentration of 1000 μM to 0.0169 μM. The vehicle of the test compound or inhibitor, distilled water, was used as blank control. For non-specific activity, 100 μM L-NMMA was run in parallel as a control.
All incubations were performed in duplicate
The reaction mixture was prepared on ice by the addition of the following components to the appropriate well of a 1.0 mL 96-well polypropylene plate:
10 μL of test compound, reference inhibitor, or control (vehicle or L-NMMA) solution;
25 μL of Reaction Buffer (50 mM Tris-HCl, 6 μM BH4, 2 μM FMN, 2 μM FAD);
5 μL of 10 mM NADPH solution;
5 μL of 1 μM Calmodulin; and
The reaction mixture was pre-incubated at room temperature for 15 minutes. Following this pre-incubation, the reaction was initiated by the addition of 5 μL of the substrate L-arginine (1 μCi of [^3H]-L-Arginine+30 μM of unlabeled L-Arginine) to the reaction mixture. The total reaction volume was 60 μL. The assay plate containing the reaction mixtures was sealed and incubated at 37° C. for 30 minutes. At the end of this incubation period, 400 μL of ice-cold Stop Buffer (the EDTA in the Stop Buffer chelates all of the available calcium) was added to each well to stop the reaction. 100 μL of equilibrated resin pH 5.5 was added to each of the assay wells. The reaction samples were vortexed and transferred to spin cups, after-which they were centrifuged at 13,000 rpm for 30 sec. The spin cups were removed from the holder and […] (containing the unbound L-citrulline) were added to the appropriate wells of a 96-well liquid scintillation plate. 175 μL of scintillation fluid were also added to each well. The plate was sealed, and radioactivity was quantitated using a Microbeta liquid scintillation counter.
Data were analyzed using a Sigmoidal dose-response (variable slope) curve to determine the IC50 value of the test compound. Y=Bottom+(Top−Bottom)/(1+10^((Log IC50−X)*Hill Slope))

Row | Compound | Selectivity eNOS/nNOS [1] | IC50 [1] | IC50 [2] | IC50 [3]
1 | N=C(Nc1ccc2c(c1)SCCN2CCN1CCCCC1)c1cccs1 [Compound 14, N-(4-(2-(Piperidin-1-yl)ethyl)-3,4-dihydro-2H-benzo[b][1,4]thiazin-7-yl)thiophene-2-carboximidamide] | 82.1 | 0.14 µM | 11.5 µM | 172 µM
2 | CN(C)CCN1C(=O)COc2cc(NC(=N)c3cccs3)ccc21 [Compound 5, N-(4-(2-(Dimethylamino)ethyl)-3-oxo-3,4-dihydro-2H-benzo[b][1,4]oxazin-7-yl)thiophene-2-carboximidamide] | 25.5 | 1.84 µM | 47 µM | > 100 µM
3 | CCNCCN1CCOc2cc(NC(=N)c3cccs3)ccc21 [Compound 7, N-(4-(2-(ethylamino)ethyl)-3,4-dihydro-2H-benzo[b][1,4]oxazin-7-yl)thiophene-2-carboximidamide dihydrochloride] | 9.8 | 1.06 µM | 10.4 µM | > 100 µM
4 | CN(C)CCCN1CCSc2cc(NC(=N)c3cccs3)ccc21 [Compound 22, N-(4-(3-(Dimethylamino)propyl)-3,4-dihydro-2H-benzo[b][1,4]thiazin-7-yl)thiophene-2-carboximidamide] | 864 | 0.014 µM | 12.1 µM | 115 µM
5 | CN1CCCC1CCN1CCSc2cc(NC(=N)c3cccs3)ccc21 (centres unmarked) [Compound 13, N-(4-(2-(1-methylpyrrolidin-2-yl)ethyl)-3,4-dihydro-2H-benzo[b][1,4]thiazin-7-yl)thiophene-2-carboximidamide] | 52.2 | 0.19 µM | 9.92 µM | 33.1 µM
6 | CCNCCN1CCSc2ccc(NC(=N)c3cccs3)cc21 [Compound 24, N-(4-(2-(ethylamino)ethyl)-3,4-dihydro-2H-benzo[b][1,4]thiazin-6-yl)thiophene-2-carboximidamide] | 89 | 0.05 µM | 4.45 µM | 82.3 µM
7 | CN(C)CCN1CCSc2ccc(NC(=N)c3cccs3)cc21 [Compound 27, N-(4-(2-(dimethylamino)ethyl)-3,4-dihydro-2H-benzo[b][1,4]thiazin-6-yl)thiophene-2-carboximidamide] | 268.4 | 0.13 µM | 34.9 µM | 66.5 µM
8 | N=C(Nc1ccc2c(c1)N(CCNCCO)CCS2)c1cccs1 [Compound 26, N-(4-(2-(2-hydroxyethylamino)ethyl)-3,4-dihydro-2H-benzo[b][1,4]thiazin-6-yl)thiophene-2-carboximidamide] | 56.5 | 0.15 µM | 8.48 µM | 60.1 µM
9 | N=C(Nc1ccc2c(c1)OCC(=O)N2CCN1CCCC1)c1cccs1 [Compound 3, N-(3-oxo-4-(2-(pyrrolidin-1-yl)ethyl)-3,4-dihydro-2H-benzo[b][1,4]oxazin-7-yl)thiophene-2-carboximidamide] | 16.2 | 0.85 µM | 13.8 µM | 1.5 µM
10 | N=C(Nc1ccc2c(c1)N(C1CCNCC1)CCS2)c1cccs1 [Compound 29, N-(4-(piperidin-4-yl)-3,4-dihydro-2H-benzo[b][1,4]thiazin-6-yl)thiophene-2-carboximidamide] | 396 | 0.11 µM | 43.6 µM | 76.8 µM
11 | CN(CCN1CCSc2cc(NC(=N)c3cccs3)ccc21)CC(=O)O [Compound 17, 2-(methyl(2-(7-(thiophene-2-carboximidamido)-2H-benzo[b][1,4]thiazin-4(3H)-yl)ethyl)amino)acetic acid dihydrochloride] | 9.3 | 1.16 µM | 10.9 µM | 241 µM
12 | CN1CCCC1CCN1C(=O)COc2cc(NC(=N)c3cccs3)ccc21 (centres unmarked) [Compound 1] | 41.9 |  |  | 
13 | CNCCN1CCSc2ccc(NC(=N)c3cccs3)cc21 [Compound 28, N-(4-(2-(methylamino)ethyl)-3,4-dihydro-2H-benzo[b][1,4]thiazin-6-yl)thiophene-2-carboximidamide] | 107.2 | 0.08 µM | 8.58 µM | 348 µM
14 | CN1CCCC1CCN1CCOc2cc(NC(=N)c3cccs3)ccc21 (centres unmarked) [Compound 2] | 25.3 |  |  | 
15 | CN(C)CCN1CCOc2cc(NC(=N)c3cccs3)ccc21 [Compound 6, N-(4-(2-(dimethylamino)ethyl)-3,4-dihydro-2H-benzo[b][1,4]oxazin-7-yl)thiophene-2-carboximidamide] | 208.5 | 0.2 µM | 41.7 µM | 10.9 µM
16 | N=C(Nc1ccc2c(c1)SCCN2CCN1CCC[C@H]1C(=O)O)c1cccs1 [Compound 18, (S)-1-(2-(7-(Thiophene-2-carboximidamido)-2H-benzo[b][1,4]thiazin-4(3H)-yl)ethyl)pyrrolidine-2-carboxylic acid dihydrochloride] | 19 | 0.66 µM | 12.6 µM | 341 µM
17 | N=C(Nc1ccc2c(c1)SCCN2CCN1CCCC1)c1cccs1 [Compound 11, N-(4-(2-(pyrrolidin-1-yl)ethyl)-3,4-dihydro-2H-benzo[b][1,4]thiazin-7-yl)thiophene-2-carboximidamide] | 101.6 | 0.24 µM | 24.4 µM | 117 µM
